Measurements reported in PubChem BioAssay AID330 (DTP/NCI, 2004).
“And” between values parts separate entries of the source, which are not always exact repeats. Equal values may be shown once. Inconclusive results and toxic doses are left out. Rule for the calls: active = survival T/C of 150% or more; inactive = T/C below 125% in these data.

System: P388 leukemia ip, CD2F1 mice, survival T/C
Assay: NCI In Vivo Anticancer Drug Screen. Data for tumor model P388 Leukemia (intraperitoneal) in CD2F1 (CDF1) mice
Conditions: endpoint: median survival time, higher = longer survival
Summary of the method: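 Mice carrying the transplanted tumor received test compound or vehicle. Survival was recorded in each group, and the value is the treated-group measurement divided by that of the vehicle-treated control group.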

[1] = dose: 12.5 mg/kg/injection, schedule: Q01DX009 (ip), vehicle: saline
[2] = dose: 100.0 mg/kg/injection, schedule: Q01DX009 (ip), vehicle: saline
[3] = dose: 50.0 mg/kg/injection, schedule: Q01DX009 (ip), vehicle: saline with Tween-80
[4] = dose: 100.0 mg/kg/injection, schedule: Q01DX009 (ip), vehicle: saline with Tween-80
[5] = dose: 200.0 mg/kg/injection, schedule: Q01DX009 (ip), vehicle: saline with Tween-80
[6] = dose: 50.0 mg/kg/injection, schedule: Q01DX005 (ip), vehicle: Klucel (hydroxypropylcellulose) (HPC)
[7] = dose: 100.0 mg/kg/injection, schedule: Q01DX005 (ip), vehicle: Klucel (hydroxypropylcellulose) (HPC)
[8] = dose: 200.0 mg/kg/injection, schedule: Q01DX005 (ip), vehicle: Klucel (hydroxypropylcellulose) (HPC)
[9] = dose: 50.0 mg/kg/injection, schedule: Q01DX005 (ip), vehicle: saline
[10] = dose: 25.0 mg/kg/injection, schedule: Q01DX009 (ip), vehicle: saline with Tween-80
[11] = dose: 25.0 mg/kg/injection, schedule: Q01DX009 (ip), vehicle: saline
[12] = dose: 50.0 mg/kg/injection, schedule: Q01DX009 (ip), vehicle: saline
[13] = dose: 200.0 mg/kg/injection, schedule: Q01DX009 (ip), vehicle: saline
[14] = dose: 60.0 mg/kg/injection, schedule: Q01DX005 (ip), vehicle: saline with Tween-80
[15] = dose: 120.0 mg/kg/injection, schedule: Q01DX005 (ip), vehicle: saline with Tween-80
[16] = dose: 240.0 mg/kg/injection, schedule: Q01DX005 (ip), vehicle: saline with Tween-80
[17] = dose: 100.0 mg/kg/injection, schedule: Q04DX003 (ip), vehicle: saline
[18] = dose: 50.0 mg/kg/injection, schedule: Q01DX009 (ip), vehicle: Klucel (hydroxypropylcellulose) (HPC)
[19] = dose: 100.0 mg/kg/injection, schedule: Q01DX009 (ip), vehicle: Klucel (hydroxypropylcellulose) (HPC)
[20] = dose: 200.0 mg/kg/injection, schedule: Q01DX009 (ip), vehicle: Klucel (hydroxypropylcellulose) (HPC)

Measured: T/C

CCC[CH2][Sn]([CH2]CCC)([CH2]CCC)[CH2]S(=O)(=O)O
inactive: dose: 6.25 mg/kg/injection, schedule: Q01DX009 (ip), vehicle: saline 108 % of control | [1] 119 % of control | [2] 116 % of control

CCn1c2ccccc2c2cc(N=Nc3cc4ccccc4[nH]3)ccc21
inactive: [3] 115 % of control | [4] 113 % of control | [5] 113 % of control

O=C1C2C(C(=O)N1c1ccc(OCc3ccccc3)cc1)C1c3ccccc3C2C2CCCCN21 (stereo unspecified)
inactive: dose: 3.13 mg/kg/injection, schedule: Q01DX009 (ip), vehicle: water 100 % of control | dose: 6.25 mg/kg/injection, schedule: Q01DX009 (ip), vehicle: water 105 % of control | dose: 12.5 mg/kg/injection, schedule: Q01DX009 (ip), vehicle: water 109 % of control | dose: 25.0 mg/kg/injection, schedule: Q01DX009 (ip), vehicle: water 111 % of control

O=C(CC1(O)C(=O)Nc2c(Cl)cccc21)c1cccs1 (stereo unspecified)
inactive: [6] 103 % of control | [7] 100 % of control | [8] 104 % of control

Cc1ccc2c(c1)=N/C(=N\c1nc(O)c(O)[nH]1)N=2
inactive: dose: 60.0 mg/kg/injection, schedule: Q01DX009 (ip), vehicle: saline with Tween-80 106 % of control | [4] 106 % of control | dose: 140.0 mg/kg/injection, schedule: Q01DX009 (ip), vehicle: saline with Tween-80 109 % of control | dose: 210.0 mg/kg/injection, schedule: Q01DX009 (ip), vehicle: saline with Tween-80 111 % of control

CCN=C(N)Nc1nc(C)c2cc(Cl)ccc2n1
inactive: dose: 12.5 mg/kg/injection, schedule: Q01DX005 (ip), vehicle: saline 104 % of control | dose: 25.0 mg/kg/injection, schedule: Q01DX005 (ip), vehicle: saline 104 % of control | dose: 50.0 mg/kg/injection, schedule: Q01DX005 (ip), vehicle: saline with Tween-80 109 % of control | [9] 111 % of control

CCC1=C(O)C(=O)C(C)(C)C1=O
inactive: [9] 99 % of control and 101 % of control | dose: 100.0 mg/kg/injection, schedule: Q01DX005 (ip), vehicle: saline 100 % of control and 96 % of control | dose: 200.0 mg/kg/injection, schedule: Q01DX005 (ip), vehicle: saline 90 % of control and 98 % of control

CCCOSSOCCC
inactive: [10] 103 % of control | [3] 100 % of control | [4] 99 % of control

CNCCNc1ccc(NCCNC)c2c1C(=O)c1ccccc1C2=O
inactive: dose: 16.0 mg/kg/injection, schedule: Q01DX009 (ip), vehicle: acid diluted with saline 86 % of control
active: dose: 2.0 mg/kg/injection, schedule: Q01DX009 (ip), vehicle: acid diluted with saline 183 % of control | dose: 4.0 mg/kg/injection, schedule: Q01DX009 (ip), vehicle: acid diluted with saline 175 % of control | dose: 8.0 mg/kg/injection, schedule: Q01DX009 (ip), vehicle: acid diluted with saline 175 % of control | dose: 12.5 mg/kg/injection, schedule: Q01DX009 (ip), vehicle: distilled water + Tween-80 200 % of control

COc1ccc2[nH]c(=O)oc(=O)c2c1
inactive: [11] 100 % of control | [12] 96 % of control | [2] 107 % of control | [13] 107 % of control

CC(C)CC(NC(c1ccccc1)P(=O)(O)O)C(=O)O (stereo unspecified)
inactive: [14] 100 % of control | [15] 96 % of control | [16] 91 % of control

CC12CCC(=O)C1C=CC2=O (stereo unspecified)
inactive: dose: 100.0 mg/kg/injection, schedule: Q04DX003 (ip), vehicle: saline + Tween-80 + alcohol 100 % of control | dose: 200.0 mg/kg/injection, schedule: Q04DX003 (ip), vehicle: saline + Tween-80 + alcohol 112 % of control

CCOC(=O)C(=CCBr)C(=O)OCC
inactive: dose: 1.56 mg/kg/injection, schedule: Q01DX009 (ip), vehicle: other 105 % of control | dose: 3.13 mg/kg/injection, schedule: Q01DX009 (ip), vehicle: other 110 % of control | dose: 6.25 mg/kg/injection, schedule: Q01DX009 (ip), vehicle: other 118 % of control | dose: 12.5 mg/kg/injection, schedule: Q01DX009 (ip), vehicle: other 106 % of control | dose: 25.0 mg/kg/injection, schedule: Q01DX009 (ip), vehicle: other 102 % of control

CCCCN(C)c1ncnc2[nH]ncc12
inactive: [17] 100 % of control

COC(=O)CCC(=O)Nc1cc(Cl)c(Cl)cc1Cl
inactive: [14] 100 % of control | [15] 93 % of control | [16] 91 % of control

CCCCCCCCCCCCCCCC[N+](C)(C)CCNC(=O)C1CSC(C)(C)N1C=O (stereo unspecified)
inactive: [1] 106 % of control | [11] 97 % of control

O=C(CC(c1ccccc1)C1c2ccccc2C(=O)c2ccccc21)c1ccccc1 (stereo unspecified)
inactive: [18] 87 % of control | [19] 93 % of control | [20] 92 % of control | dose: 400.0 mg/kg/injection, schedule: Q01DX009 (ip), vehicle: Klucel (hydroxypropylcellulose) (HPC) 88 % of control

C=C(C)C(=O)O[C@@H]1C/C(C)=C\[C@H](OC(C)=O)C[C@](C)(O)/C=C2/OC(=O)C(COC(C)=O)=C21
inactive: dose: 5.5 mg/kg/injection, schedule: Q01DX005 (ip), vehicle: Klucel (hydroxypropylcellulose) (HPC) 105 % of control and 110 % of control | dose: 11.0 mg/kg/injection, schedule: Q01DX005 (ip), vehicle: Klucel (hydroxypropylcellulose) (HPC) 103 % of control and 109 % of control | dose: 22.0 mg/kg/injection, schedule: Q01DX005 (ip), vehicle: Klucel (hydroxypropylcellulose) (HPC) 122 % of control

CCOC(=O)C1CC(C)CC1=O (stereo unspecified)
inactive: [12] 96 % of control | [2] 98 % of control | [13] 102 % of control

COc1ccc2c(C)cc(OC)nc2c1
inactive: [3] 94 % of control | [4] 91 % of control | [5] 97 % of control

CSC1=NN(C(C)=O)C(c2ccncc2)S1 (stereo unspecified)
inactive: [6] 96 % of control | [7] 97 % of control | [8] 92 % of control

CN(C)c1nc(Cl)nc2c1nc(Cl)n2C1CCCCO1 (stereo unspecified)
inactive: [6] 93 % of control | [7] 90 % of control | [8] 102 % of control

NC(=O)C(=O)NNC(=O)CCn1[nH]c(=O)c(Cl)c(Cl)c1=O
inactive: [14] 100 % of control | [15] 103 % of control | [16] 98 % of control

Cc1cc(O)c(NCCCN(C)C)c2c(=O)c3ccccc3sc12
inactive: [10] 97 % of control | [3] 93 % of control | [4] 110 % of control

CC(NC(=O)/C=C/c1ccco1)C(=O)NC(Cc1ccccc1)C(N)=O (stereo unspecified)
inactive: [6] 104 % of control | [7] 106 % of control | [8] 104 % of control

CCCC(O)C(C)[N+](=O)[O-] (stereo unspecified)
inactive: [17] 100 % of control | dose: 200.0 mg/kg/injection, schedule: Q04DX003 (ip), vehicle: saline 95 % of control

Fc1c2ccccc2c2ccc3cccc4ccc1c2c43
inactive: dose: 50.0 mg/kg/injection, schedule: Q04DX002 (ip), vehicle: saline 103 % of control and 104 % of control | dose: 100.0 mg/kg/injection, schedule: Q04DX002 (ip), vehicle: saline with Tween-80 117 % of control | dose: 100.0 mg/kg/injection, schedule: Q04DX002 (ip), vehicle: saline 100 % of control and 110 % of control | dose: 200.0 mg/kg/injection, schedule: Q04DX002 (ip), vehicle: saline 100 % of control and 113 % of control | dose: 400.0 mg/kg/injection, schedule: Q04DX002 (ip), vehicle: saline 103 % of control

CCOC(=O)C1(n2[nH]c(=O)n(-c3ccccc3)c2=O)CC(C)(C)OC1=O (stereo unspecified)
inactive: [18] 106 % of control | [19] 98 % of control | [20] 98 % of control

CC(C)N=C(N)/N=C(\N)Nc1ccc2ccc3ccccc3c2c1
inactive: dose: 6.25 mg/kg/injection, schedule: Q01DX009 (ip), vehicle: Klucel (hydroxypropylcellulose) (HPC) 105 % of control | dose: 12.5 mg/kg/injection, schedule: Q01DX009 (ip), vehicle: Klucel (hydroxypropylcellulose) (HPC) 113 % of control | dose: 25.0 mg/kg/injection, schedule: Q01DX009 (ip), vehicle: Klucel (hydroxypropylcellulose) (HPC) 103 % of control

O=C1NC(=O)C2(CC3CCCCC3CC2c2ccccc2)N1 (stereo unspecified)
inactive: dose: 100.0 mg/kg/injection, schedule: Q04DX003 (ip), vehicle: saline with Tween-80 89 % of control | dose: 200.0 mg/kg/injection, schedule: Q04DX003 (ip), vehicle: saline with Tween-80 91 % of control | dose: 400.0 mg/kg/injection, schedule: Q04DX003 (ip), vehicle: saline with Tween-80 100 % of control
